Data on 1 molecule can be found in patent US20050090651A1, “Polymeric compounds” (AdProTech Limited Cesterford Research Park, Little …, priority 2001, published 2005).

A short description of this data set: Solubility of the lyophilised peptide. It counts as physicochemical. The procedure: The crude peptide was desalted via gel filtration (Sephadex G10, 0.1% TFA in water) before purification by preparative C18 Vydac) high performance liquid chromatography (HPLC) using 0.1% trifluoroacetic acid and 0.1% trifluoroacetic acid/90% acetonitrile as gradient components. After lyophilisation, the peptide was a white amorphous powder, soluble to at least 10 mg/mL in both dimethylsulfoxide and water. Fast atom bombardment spectrometry gave a main peak at 2101 amu corresponding to the molecular ion of the peptide.

Where a SMILES comes first, the peptide text is derived from it. The star is where a group is joined. Myristoyl = CCCCCCCCCCCCCC(=O)*

Turning to `CCCCCCCCCCCCCC(=O)NCC(=O)N[C@@H](CO)C(=O)N[C@@H](CO)C(=O)N[C@@H](CCCCN)C(=O)N[C@@H](CO)C(=O)N1CCC[C@H]1C(=O)N[C@@H](CO)C(=O)N[C@@H](CCCCN)C(=O)N[C@@H](CCCCN)C(=O)N[C@@H](CC(=O)O)C(=O)N[C@@H](CC(=O)O)C(=O)N[C@@H](CCCCN)C(=O)N[C@@H](CCCCN)C(=O)N1CCC[C@H]1C(=O)NCC(=O)N[C@@H](CC(=O)O)C(=O)N[C@@H](CCCCNC(=O)[C@@H](N)CS)C(N)=O` [MSWP2278, Myristoyl-Gly-Ser-Ser-Lys-Ser-Pro-Ser-Lys-Lys-Asp-Asp-Lys-Lys-Pro-Gly-Asp-(ε-amino-cysteinyl carboxamide)-Lys-NH2] (Myristoyl-GSSKSPSKKDDKKPGDK(Cys)-NH2), the solubility is at least 10000 µg/mL (in dimethylsulfoxide) and at least 10000 µg/mL (in water).
